Measurements reported in publication PMC5874678, “Bryonolic Acid Blocks Cancer Cell Clonogenicity and Invasiveness through the Inhibition of Fatty Acid: Cholesteryl Ester Formation” (Biomedicines, 2018).

Key:
[1] = molecular target: T1, cholesterol-5,6-epoxide hydrolase (ChEH) (Rattus norvegicus, UniProt Q9JJ46+Q9Z2Z8); assay: Cholesterol epoxide hydrolase (ChEH) inhibition assay; format: biochemical; details: 150 μg rat liver microsomal proteins, 10 and 20 μM [14C]α-CE, compounds 0.01 to 1000 μM
T1 construct: from tissue; host or cells: rat liver microsomes
T1 sequence (Q9JJ46 2-230 limits assumed): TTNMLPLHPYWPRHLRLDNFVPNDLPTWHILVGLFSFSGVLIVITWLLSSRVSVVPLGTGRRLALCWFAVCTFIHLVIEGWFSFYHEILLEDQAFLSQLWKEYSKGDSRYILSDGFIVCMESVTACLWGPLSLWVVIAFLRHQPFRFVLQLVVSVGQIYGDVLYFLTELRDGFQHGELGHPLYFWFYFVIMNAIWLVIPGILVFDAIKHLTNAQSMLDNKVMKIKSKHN
T1 sequence (Q9Z2Z8 1-471): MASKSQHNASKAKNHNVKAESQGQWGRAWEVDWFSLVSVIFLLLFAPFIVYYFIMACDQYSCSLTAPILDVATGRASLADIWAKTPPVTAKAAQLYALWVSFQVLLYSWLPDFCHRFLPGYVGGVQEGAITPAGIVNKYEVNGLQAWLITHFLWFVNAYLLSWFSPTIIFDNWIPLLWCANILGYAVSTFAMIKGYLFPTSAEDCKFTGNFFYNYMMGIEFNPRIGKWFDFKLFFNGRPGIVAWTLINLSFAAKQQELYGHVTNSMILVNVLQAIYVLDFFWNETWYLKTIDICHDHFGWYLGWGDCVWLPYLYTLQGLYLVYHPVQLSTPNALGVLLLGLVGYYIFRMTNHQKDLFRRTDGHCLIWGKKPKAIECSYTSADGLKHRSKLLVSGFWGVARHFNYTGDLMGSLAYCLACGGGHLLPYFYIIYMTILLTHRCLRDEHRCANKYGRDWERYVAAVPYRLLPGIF
Experimental: Inhibition of ChEH activity was measured as described previously on a whole-cell assay using MCF-7 cells [33]. […] Cells were treated for 24 h with 0.6 μM [^14C]α-CE.
The mixtures were incubated over a period of 0 to 30 min. The tubes were placed in ice cold distilled water to stop the reaction and the addition of 1.5 mL chloroform/methanol (2:1) and reaction buffer (500 mL) followed. After vortexing, the lower phase was aspirated and the residual aqueous phase was extracted with chloroform (1.5 mL). The organic extracts were combined and dried under a gentle stream of nitrogen, followed by suspension in ethanol (60 µL).
Samples were applied to TLC plates that had been heated previously for 1 h at 100 °C and were developed using ethyl acetate. The regions corresponding to authentic CE and cholestane-3β,5α,6β-triol standards were visualized by iodine vapour. Radioactive metabolites were visualized using a Storm apparatus (GE Healthcare) and quantified by densitometry with the software ImageQuant version 5.2 (GE Healthcare).

ERβ = ERβ (Homo sapiens, UniProt Q92731); assay: Oestrogen receptor competition binding assay, ERβ; details: n.m. = no measurable inhibition of binding
Experimental: (§1) Competition binding to ERα and ERβ was measured exactly as described previously.

ACAT in MB-231 cells = molecular target: T2, ACAT in MB-231 cells (Homo sapiens, UniProt P35610); assay: ACAT activity in intact MB-231 cells; format: cell-based; details: MB-231, 24 h, [14C]cholesterol; for IC50: read-out: IC50, inhibition of ACAT activity in intact cells
T2 construct: endogenous in cells; host or cells: MCF-7, MDA-MB-231, U-87
T2 sequence (P35610 1-550): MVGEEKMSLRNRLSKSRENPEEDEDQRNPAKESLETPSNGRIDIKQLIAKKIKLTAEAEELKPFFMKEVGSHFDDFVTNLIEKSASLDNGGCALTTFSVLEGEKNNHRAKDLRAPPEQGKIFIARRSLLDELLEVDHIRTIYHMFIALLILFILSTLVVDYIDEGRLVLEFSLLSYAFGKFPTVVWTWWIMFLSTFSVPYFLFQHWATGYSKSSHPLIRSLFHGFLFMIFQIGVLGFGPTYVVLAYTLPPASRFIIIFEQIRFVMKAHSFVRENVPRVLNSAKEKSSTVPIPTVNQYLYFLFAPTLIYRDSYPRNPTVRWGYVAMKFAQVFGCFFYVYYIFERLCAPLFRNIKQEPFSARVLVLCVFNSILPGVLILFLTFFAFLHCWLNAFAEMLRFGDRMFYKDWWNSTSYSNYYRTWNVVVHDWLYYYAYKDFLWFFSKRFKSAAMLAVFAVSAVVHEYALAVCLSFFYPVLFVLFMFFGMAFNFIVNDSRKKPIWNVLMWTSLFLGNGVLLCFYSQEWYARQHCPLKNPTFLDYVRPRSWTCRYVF
Experimental: (§2) MCF-7, MB-231, U-87 and 3T3-EA cells were plated on six-well plates (40,000 cells/well). ACAT activity in intact cells was measured as described previously. Cells were preincubated for 15 min. with solvent vehicle or increasing concentrations of BrA ranging from 1 to 200 μM in complete medium. [^14C]Cholesterol (0.2 μCi/well) was added and the cells were incubated for 24 h. At the end of the incubation, intracellular and secreted lipids in the supernatant were extracted and then separated by TLC as described previously. Free and esterified cholesterol were identified using purified ^14C commercial standards and the radioactivity of each individual lipid was quantified using a phosphor screen (Storm; GE Healthcare, Chicago, IL, USA). ACAT activity is expressed as the percentage of the ACAT activity measured in the absence of inhibitors (cells treated with solvent vehicle).
(§3) Cells were plated on 6-well plates. […]. [^14C]cholesterol (0.2 μCi/well) was added and cells were incubated for 24 h. At the end of the incubation, intracellular lipids were extracted as described in [30] and then separated by TLC as described previously. Free and esterified cholesterol were identified using purified [^14C] standards and the radioactivity associated with each individual lipid was quantified using a Phosphoscreen (Storm; Molecular Dynamics). ACAT activity is expressed as the percentage of the ACAT activity measured in the absence of inhibitors (cells treated with solvent vehicle).

ACAT in U-87 cells = molecular target: T3, ACAT in U-87 cells (Homo sapiens, UniProt P35610); assay: ACAT activity in intact U-87 cells; format: cell-based; details: U-87, 24 h, [14C]cholesterol; for IC50: read-out: IC50, inhibition of ACAT activity in intact cells
T3 construct: endogenous in cells; host or cells: MCF-7, MDA-MB-231, U-87
T3 sequence (P35610 1-550): T2 sequence (P35610 1-550)
Experimental: as §2, §3

ACAT in MCF-7 cells = molecular target: T4, ACAT in MCF-7 cells (Homo sapiens, UniProt P35610); assay: ACAT activity in intact MCF-7 cells; format: cell-based; details: MCF-7, 24 h, [14C]cholesterol; for IC50: read-out: IC50, inhibition of ACAT activity in intact cells
T4 construct: endogenous in cells; host or cells: MCF-7, MDA-MB-231, U-87
T4 sequence (P35610 1-550): T2 sequence (P35610 1-550)
Experimental: as §2, §3

ERα = molecular target: T5, ERα (Homo sapiens, UniProt P03372); assay: Oestrogen receptor competition binding assay, ERα; details: n.m. = no measurable inhibition of binding
T5 sequence (P03372 1-595): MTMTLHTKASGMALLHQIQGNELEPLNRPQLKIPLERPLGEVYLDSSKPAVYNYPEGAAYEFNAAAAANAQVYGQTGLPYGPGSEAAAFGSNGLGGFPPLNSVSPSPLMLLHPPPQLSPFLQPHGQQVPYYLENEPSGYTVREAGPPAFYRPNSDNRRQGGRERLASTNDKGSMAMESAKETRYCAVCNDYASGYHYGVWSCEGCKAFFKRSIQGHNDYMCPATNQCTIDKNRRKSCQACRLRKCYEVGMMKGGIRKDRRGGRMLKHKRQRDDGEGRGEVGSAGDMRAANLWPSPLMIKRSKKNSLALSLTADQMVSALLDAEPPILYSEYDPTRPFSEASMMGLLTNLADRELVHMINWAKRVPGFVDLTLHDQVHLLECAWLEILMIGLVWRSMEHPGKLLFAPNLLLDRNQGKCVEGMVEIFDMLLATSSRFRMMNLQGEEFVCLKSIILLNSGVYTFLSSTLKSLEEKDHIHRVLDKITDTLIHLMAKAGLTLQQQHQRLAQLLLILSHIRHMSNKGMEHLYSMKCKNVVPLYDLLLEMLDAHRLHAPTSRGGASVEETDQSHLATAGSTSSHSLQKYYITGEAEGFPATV
Experimental: as §1

[2] = molecular target: T6, ACAT in NIH-3T3-CCK2R-E151A cells (3T3-EA) (Mus musculus, UniProt Q61263); assay: ACAT activity in intact 3T3-EA cells; format: cell-based; details: 24 h, [14C]cholesterol; for IC50: read-out: IC50, inhibition of ACAT activity in intact cells
T6 construct: endogenous in cells; host or cells: NIH-3T3-CCK2R-E151A (3T3-EA)
T6 sequence (Q61263 1-540): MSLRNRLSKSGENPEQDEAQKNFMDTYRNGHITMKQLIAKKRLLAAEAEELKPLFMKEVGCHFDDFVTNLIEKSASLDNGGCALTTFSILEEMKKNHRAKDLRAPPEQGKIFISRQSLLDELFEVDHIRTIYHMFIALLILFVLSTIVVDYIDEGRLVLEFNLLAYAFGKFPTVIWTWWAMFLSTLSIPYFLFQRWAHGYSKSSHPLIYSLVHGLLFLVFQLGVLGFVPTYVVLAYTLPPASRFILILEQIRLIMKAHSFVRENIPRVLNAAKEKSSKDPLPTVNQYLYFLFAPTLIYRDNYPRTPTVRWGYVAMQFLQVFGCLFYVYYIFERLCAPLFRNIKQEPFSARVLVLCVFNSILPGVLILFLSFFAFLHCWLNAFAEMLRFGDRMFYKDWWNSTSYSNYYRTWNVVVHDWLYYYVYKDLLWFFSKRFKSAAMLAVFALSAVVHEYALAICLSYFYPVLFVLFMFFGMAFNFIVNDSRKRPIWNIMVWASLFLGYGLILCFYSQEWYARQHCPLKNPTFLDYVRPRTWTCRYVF
Experimental: as §2, §3

[3] = test system: MCF-7, MB-231, U-87 and 3T3-EA cells; assay: Cell invasion assay (Matrigel-coated filters); format: cell-based
Experimental: Cells were added to six-well plates (40,000 cells/well) containing Dulbecco's Modified Eagle Medium (DMEM) and 10% FCS. Following incubation for 24 h, the cells were treated for a further 24 h in the presence of the test compounds, or else vehicle in DMEM and 2% Fetal Calf Serum (FCS). The cells were harvested and counted. Cells (20,000) were placed in serum-free DMEM on the surface of Nunc filters (8 mm diameter, […]; Nalgen Nunc International, Rochester, NY, USA). The filters were coated with growth factor-reduced Matrigel ([…] Matrigel; BD Biosciences, San Jose, CA, USA) in the presence of the test compounds or else vehicle. The base of the filter was filled with 10% FCS/DMEM. Following incubation for 48 h at 37 °C, cells which had invaded the Matrigel and attached themselves to the base of the filter were fixed, stained with Giemsa stain and counted microscopically.

[4] = test system: MCF-7, MB-231, U-87 and 3T3-EA cells; assay: Clonogenic assay (colony formation); format: cell-based; details: Homo sapiens, MCF7, four tested cell lines, vs solvent vehicle, read-out: inhibition of cancer cell colony formation
Experimental: Following trypsinization of the cells, they were plated in tissue culture plates (60 mm) at a density of 500–1000 per plate. After adherence for 24 h, the drugs were added at the chosen final concentrations from freshly prepared stock solutions. The plates were washed twice with serum-free medium after 24 to 72 h incubation. Fresh medium was added and the plates were incubated at 37 °C until the colonies became visible. After incubation, the plates were washed with PBS and stained using Coomassie brilliant blue. The stained colonies were counted and are reported as the percentage of control cells (ethanol treated (0.01% (v/v)).

Chain of ERβ (Q92731 whole entry, species assumed): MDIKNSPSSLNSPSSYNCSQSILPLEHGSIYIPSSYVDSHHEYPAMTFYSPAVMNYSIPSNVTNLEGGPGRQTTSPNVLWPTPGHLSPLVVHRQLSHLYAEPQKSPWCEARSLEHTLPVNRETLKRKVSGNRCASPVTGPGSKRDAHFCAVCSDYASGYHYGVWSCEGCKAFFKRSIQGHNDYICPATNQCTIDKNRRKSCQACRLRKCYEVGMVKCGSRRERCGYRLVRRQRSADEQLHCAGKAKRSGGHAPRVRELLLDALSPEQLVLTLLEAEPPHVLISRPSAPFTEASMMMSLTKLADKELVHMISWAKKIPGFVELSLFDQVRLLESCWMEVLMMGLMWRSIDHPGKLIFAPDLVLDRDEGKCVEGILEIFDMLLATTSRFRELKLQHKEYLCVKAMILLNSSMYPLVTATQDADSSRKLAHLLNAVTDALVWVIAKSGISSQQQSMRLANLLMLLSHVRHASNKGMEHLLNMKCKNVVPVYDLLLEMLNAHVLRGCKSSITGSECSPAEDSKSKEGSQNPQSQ

Row | IC50, ChEH inhibition [1] | IC50, competition with radiolabelled 17β-estradiol binding to ERβ (ERβ) | IC50 (ACAT in MB-231 cells) [µM] | IC50 (ACAT in U-87 cells) [µM] | IC50 (ACAT in MCF-7 cells) [µM] | IC50, competition with radiolabelled 17β-estradiol binding to ERα (ERα) | IC50 [2] [µM] | IC50, ChEH inhibition ([1]; listed as BrA) | IC50, inhibition of ACAT activity in intact cells (ACAT in MB-231 cells) | IC50, inhibition of ACAT activity in intact cells (ACAT in U-87 cells) | IC50, inhibition of ACAT activity in intact cells (ACAT in MCF-7 cells) | IC50, inhibition of ACAT activity in intact cells [2] | SMILES | inhibition of cell invasiveness ([3]; 25 μM, 24 h pre-treatment, 48 h invasion, four cell lines) | effect of added cholesteryl oleate on inhibition of cell invasiveness ([3]; cholesteryl oleate 4 µg/mL, MB-231 and U87 cells) | inhibition at 25 µM [4] [%]
1 | n.m. | n.m. | 29.5 ± 5.5 | 17.5 ± 4.8 | 22.5 ± 3.7 | n.m. | 19.4 ± 7.6 | does not inhibit ChEH | – | – | – | – | CC1(C)[C@@H](O)CC[C@]2(C)C3=C(CC[C@@H]12)[C@@]1(C)CC[C@@]2(C)CC[C@@](C)(C(=O)O)C[C@H]2[C@]1(C)CC3 [bryonolic acid, D-C friedoolean-8-en-3β-ol-29 oic acid] | observable in the four cell lines | blocked the inhibition of cell invasiveness triggered by BrA | > 50
2 | n.m. | n.m. | – | – | – | – | – | – | n.m. | n.m. | n.m. | n.m | C[C@H]1[C@H](C)CC[C@]2(C(=O)O)CC[C@]3(C)C(=CC[C@@H]4[C@@]5(C)CC[C@H](O)C(C)(C)[C@@H]5CC[C@]43C)[C@H]12 [ursolic acid] | – | – | –

Second part, the compound before the results:

Row | SMILES | IC50, ChEH inhibition [1] | IC50, competition with radiolabelled 17β-estradiol binding to ERβ (ERβ) | IC50 (ACAT in MB-231 cells) [µM] | IC50 (ACAT in U-87 cells) [µM] | IC50 (ACAT in MCF-7 cells) [µM] | IC50, competition with radiolabelled 17β-estradiol binding to ERα (ERα) | IC50 [2] [µM] | IC50, ChEH inhibition ([1]; listed as BrA) | IC50, inhibition of ACAT activity in intact cells (ACAT in MB-231 cells) | IC50, inhibition of ACAT activity in intact cells (ACAT in U-87 cells) | IC50, inhibition of ACAT activity in intact cells (ACAT in MCF-7 cells) | IC50, inhibition of ACAT activity in intact cells [2] | inhibition of cell invasiveness ([3]; 25 μM, 24 h pre-treatment, 48 h invasion, four cell lines) | effect of added cholesteryl oleate on inhibition of cell invasiveness ([3]; cholesteryl oleate 4 µg/mL, MB-231 and U87 cells) | inhibition at 25 µM [4] [%]
3 | C[C@]12CC[C@@H]3c4ccc(O)cc4CC[C@H]3[C@@H]1CC[C@@H]2O [E2, 17β-estradiol] | n.m. | – | – | – | – | – | – | – | – | – | – | – | – | – | –
4 | C=C(C)[C@@H]1CC[C@]2(C(=O)O)CC[C@]3(C)[C@H](CC[C@@H]4[C@@]5(C)CC[C@H](O)C(C)(C)[C@@H]5CC[C@]43C)[C@@H]12 [betulinic acid] | n.m. | n.m. | 58.3 ± 8.1 | 61.4 ± 9.4 | 53.7 ± 4.2 | n.m. | 60.2 ± 8 | – | – | – | – | – | – | – | –
5 | CCCCCCCCCC[Si](C)(C)CCC(=O)NC(Cc1ccc(C)cc1)c1ccccc1 (centres unmarked) [sah 58-035, 3-[decyldimethylsilyl]-N-[2-(4-methylphenyl)-1-phenylethyl]-propanamide] | – | – | 9.1 ± 1.4 | 9.2 ± 2.2 | 5.1 ± 0.5 | – | 7.4 ± 1.8 | – | – | – | – | – | – | – | –
